Structures can show the parent of a compound that is named as a salt.
Legend:
Type in all cases: physicochemical
[1] = Log P, Log Pion, Log D by potentiometric titration (Sirius GlpKa, octanol:water); settings: octanol:ionic-strength adjusted water
From the text: Most drugs have an ideal log P value and any deviation from this idealized value results in reduced absorption, slow transport of drug to the site of action and consequently, a decrease in biological activity. Table 8, illustrates the predicted and measured values for partition coefficients of MN-029 di-hydrochloride. The data was collected by potentiometric titration using a Sirius GlpKa instrument using three ratios of octanol:ionic-strength adjusted water to generate Log P, Log Pion and Log D values and the raw data was analyzed using Refinement Pro Software V.1.0. The predicted value of Log P was obtained using ACD V. software and Syracuse KOWWIN V.1.67 softwares.

[2] = Gravimetric Vapor Sorption (GVS) hygroscopicity; settings: for Weight change: GVS
From the text: Moreover, neither the mono-hydrochloride salt or the di-hydrochloride salt of MN-029 show any significant change in phase as measured by XRPD analysis of samples subjected to GVS analysis (see FIG. 6).

[3] = Solubility in citrate buffer at different pH values (1M sodium hydroxide added), HPLC; settings: for solubility: aqueous buffer, thermodynamic from solid, read-out: Solubility (free base equivalent)
Procedure: To investigate the solubility of MN-029 di-hydrochloride in citrate buffer, the di-hydrochloride salt was added in multiple small portions to 10 milliliters of an aqueous solution of citric acid (3.87 mg/ml). When no more solid dissolved, that is, when saturation was achieved, the solution in the vial was allowed to equilibrate for approximately 24 hours with shaking at 25° C. […] The pH of the saturated solution was measured prior to filtration of undissolved solid. The filtrate obtained was equally divided into five vials.
To the filtrate in each of the vials was added different volumes of 1M sodium hydroxide so as to increase the pH of the filtrate to a predetermined pH value. It was observed that the addition of base caused solid to precipitate out of solution. The reaction mixture is allowed to equilibrate with shaking at 25° C., following which the solid residue is filtered and the filtrate obtained is analyzed for presence of dissolved compound by HPLC.

[4] = Osmolality and pH of solutions in water and in 15% HPBCD
Procedure: Solutions were prepared by weighing MN-029 di-hydrochloride salt into 10-mL volumetric flasks. The drug was dissolved in water with vortexing, and samples were diluted to volume with water. Solutions of 1, 2, 4, 6 and 8 mg/mL were made according to this procedure. The samples were allowed to sit at room temperature overnight prior to pH and osmolality measurements.
All samples were clear except for the 8 mg/mL solution, which was initially clear but precipitated upon sitting overnight. As shown in Table 10 and in FIGS. 9 and 10, the pH declined in an almost linear fashion with increasing drug concentration while osmolality increased linearly with concentration up to 6 mg/mL.
The pH and osmolality were also measured for solutions of MN-029 di-hydrochloride salt in a 15% solution of hydroxypropyl-β-cyclodextrin (HPBCD). Solutions of 5, 10, 15, 20, and 30 mg/mL were prepared for analysis. The solutions were made by weighing out an appropriate amount of the compound into HPLC vials to which 1.00 mL of 15% HPBCD was added with brief vortexing. Although solutions were clear upon mixing, they were shaken overnight on an orbital shaker to assure equilibration. All solutions remained clear after overnight shaking. HPBCD at a concentration of 15% was sufficient to solubilize MN-029 di-hydrochloride up to a concentration of 30 mg/mL. As shown in Table 11 and in FIGS. 11 and 12, the pH decreased almost linearly with increasing MN-029 di-hydrochloride concentration, while the osmolality increased linearly. The dotted lines on the pH graphs (FIGS. 9 and 11) connect the data points for clarity while the dotted lines on the osmolality graphs (FIGS. 10 and 12) are linear regressions of the data which are extrapolated back to zero drug concentration.

[5] = Aqueous solubility, 24 hours equilibration in water at 25° C., HPLC, pH and XRPD of residue; settings: water
Procedure: Briefly, quantitative high performance liquid chromatography (HPLC) was used to determine the aqueous solubility. X-ray powder diffraction spectrometry was also used to characterize the thermodynamic solubility of the mono-hydrochloride and di-hydrochloride salts of MN-029. After a 24 hours equilibration of each salt form in water at 25° C., the residual solid material was separated from the aqueous solution and the pH of the aqueous sample was measured. The XRPD spectrum of the solid residue obtained from the MN-029 di-hydrochloride vial indicated the solid material to be the mono-hydrochloride salt of MN-029. […] Table 4 illustrates the data from aqueous solubility studies of the mono-hydrochloride and di-hydrochloride salts of MN-029.
The suspension was equilibrated at 25° C. for 24 hours then pH was measured. The suspension was filtered and the filtrate was diluted by a factor of 101. Quantization by HPLC with a reference to a standard solution. Different volumes of the standard, diluted, and undiluted solution were injected and solubility was calculated by integration of the peak found at the same time as the principle peak in the standard solution.

[6] = Solubility of MN-029 di-hydrochloride in aqueous citric acid; settings: aqueous citric acid (4.75 mg/ml), 25° C., 12 hours shaking
From the text: Without being held to any particular theory, the present inventor believes that the enhanced solubility of the di-hydrochloride salt is enhanced by the lower pH of the resulting solution. That is, the reduced pH of a solution of the di-hydrochloride of MN-029 improves its aqueous solubility. To test this theory, the present inventor measured the solubility of MN-029 di-hydrochloride in aqueous citric acid and in citrate buffers at different pH values. Two samples of the di-hydrochloride salt in aqueous citric acid were prepared by adding 10 ml of an aqueous citric acid solution to 36.9 mg and 74.5 mg of MN-029 di-hydrochloride salt in a vial.
After equilibration with shaking at 25° C. for 12 hours, visual inspection of the solution in each vial indicated a clear colorless solution with no solid residue. Accordingly, the solubility MN-029 di-hydrochloride in aqueous citric acid (4.75 mg/ml) was calculated to exceed […] of the di-hydrochloride per milliliter of aqueous citric acid.

[7] = In Deionized Water, 8.00* mg/mL (precipitated upon sitting overnight)
[8] = 25° C., equilibration for 24 hours

Measured LogPion(cation) [1]: 0.93
Measured LogD7.4 ([1]; pH 7.4): 2.10
logD ([1]; pH 7.4, read-out: Measured LogD7.4): 2.1
logP ([1]; read-out: Measured LogP): 2.64
Weight change ([2]; 0% RH to 40% RH): +0.56 % w/w
Weight change ([2]; 40% RH to 90% RH, listed as A063886, di-hydrochloride): Reversible uptake of +0.86% w/w
Weight change ([2]; 40% RH to 90% RH, listed as MN029*2HCl, di-hydrochloride): +0.86 % w/w
Weight change ([2]; 90% RH to 0% RH): −1.45 % w/w
XRPD of residue after GVS ([2]; sample subjected to GVS): No significant difference
fold less soluble at pH of about 5.5 than at pH of about 1.0 [3]: approximately 3000 fold
solubility ([3]; pH 0.96, 25° C.): 2.9 mg/mL
solubility ([3]; pH 2.03, 25° C.): 1.6 mg/mL
solubility ([3]; pH 3.23, 25° C.): 0.039 mg/mL
solubility ([3]; pH 5.57, 25° C.): < 0.001 mg/mL
solubility ([4]; 15% HPBCD solution, aqueous with cosolvent or surfactant or cyclodextrin, thermodynamic from solid, read-out: concentration solubilized by 15% HPBCD (solutions clear after overnight shaking)): ≥ 30 mg/mL
Osmolality ([4]; In 15% HPBCD, 5.35 mg/mL): 162 mOsm/kg
pH ([4]; In 15% HPBCD, 5.35 mg/mL): 2.40
Osmolality ([4]; In 15% HPBCD, 10.1 mg/mL): 182 mOsm/kg
pH ([4]; In 15% HPBCD, 10.1 mg/mL): 2.21
Osmolality ([4]; In 15% HPBCD, 15.3 mg/mL): 203 mOsm/kg
pH ([4]; In 15% HPBCD, 15.3 mg/mL): 2.10
Osmolality ([4]; In 15% HPBCD, 20.1 mg/mL): 221 mOsm/kg
pH ([4]; In 15% HPBCD, 20.1 mg/mL): 2.04
Osmolality ([4]; In 15% HPBCD, 30.1 mg/mL): 259 mOsm/kg
pH ([4]; In 15% HPBCD, 30.1 mg/mL): 1.89
Osmolality ([4]; In Deionized Water, 1.05 mg/mL): 6 mOsm/kg
pH ([4]; In Deionized Water, 1.05 mg/mL): 3.25
Osmolality ([4]; In Deionized Water, 2.04 mg/mL): 11 mOsm/kg
pH ([4]; In Deionized Water, 2.04 mg/mL): 3.03
Osmolality ([4]; In Deionized Water, 4.03 mg/mL): 22 mOsm/kg
pH ([4]; In Deionized Water, 4.03 mg/mL): 2.82
Osmolality ([4]; In Deionized Water, 5.96 mg/mL): 32 mOsm/kg
pH ([4]; In Deionized Water, 5.96 mg/mL): 2.63
Osmolality [4, 7]: 36* mOsm/kg
pH [4, 7]: 1.90*
fold more soluble in water than the mono-hydrochloride salt [5]: at least 3 fold
Concentration of filtrate [5, 8]: 2.1 mg/ml of free base
pH of saturated solution [5, 8]: 1.03
SMILES: COC(=O)Nc1nc2ccc(Sc3ccc(NC(=O)[C@H](C)N)cc3)cc2[nH]1 [MN-029 di-hydrochloride, carbamic acid N-[6-[[4-[[(2S)-2-amino-1-oxopropyl]amino]phenyl]thio]-1H-benzimidazol-2-yl]-methyl ester di-hydrochloride]
solubility in aqueous citric acid [6]: exceed 7.54 mg of the di-hydrochloride per milliliter of aqueous citric acid

From US8633324B2, “Denibulin di-hydrochloride” (Medicinova, Inc., priority 2011, dated 2014)
